This passage reports IC50 results from patent US9040717B2, “Pyrazole-amide compounds and pharmaceutical use thereof” (JAPAN TOBACCO INC., priority 2013, dated 2015).

The term IC50 denotes the point on the concentration scale where inhibition reaches its midpoint.

The series addresses hERG (Homo sapiens (Human), UniProt Q12809). Description: hERG whole cell patch clamp test. The settings on record: human, hERG-transfected HEK293 cells, pH 7.4; whole cell patch clamp. It counts as cell-based. On the procedure: Using human ether-a-go-go related gene (hERG)-transfected HEK293 cells (Cytomyx Limited), an influence on hERG current was examined according to the whole cell patch clamp technique. The hERG-transfected HEK293 cells were passaged using a CO2 incubator (BNA-111, TABAI ESPEC CORP.) under the set conditions of 37° C., 5% CO2, saturated humidity. Culture containers used were Collagen Type I Coated 75 cm^2 flask (4123-010, AGC TECHNO GLASS CO., Ltd.) and Collagen Type I Coated 35 mm culture dish (4000-010, AGC TECHNO GLASS CO., Ltd.). The culture medium used was E-MEM (Eagle Minimum Essential Medium (Earle's Salts, Nikken biomedical laboratory) added with 10% FCS (Fetal calf serum, BioWest, L.L.C.) and 1% MEM Non-Essential Amino Acids Solution (NEAA, Invitrogen Corporation). Geneticin for the selection of hERG gene expressing cells was added thereto to a concentration of 400 μg/mL. As the cells for the measurement, 3×10^4 hERG-transfected HEK293 cells were plated on a 35 mm culture dish 4 to 7 days before measurement of the hERG current. The culture dish produced for the measurement contained the above-mentioned culture medium without geneticin (Invitrogen Corporation).
The highest evaluation concentration of each compound was determined from the highest concentration at which precipitation was not found in the standard extracellular fluid (NaCl: 140 mmol/L, KCl: 2.5 mmol/L, MgCl2:2 mmol/L, CaCl2: 2 mmol/L, HEPES: 10 mmol/L, glucose: 10 mmol/L (adjusted to pH 7.4 with Tris-base)). As the application method, each solution to be applied was ejected from a Y-tube having a tip diameter of about 0.25 mm, which was adjacent (about 2 mm) to the cells, and applied to the cells. The ejection rate was about 0.4 mL/min.
The experiment was performed at room temperature under a phase contrast microscope. The 35 mm culture dish plated with the cells was set on a measurement apparatus, and the standard extracellular fluid was continuously applied to the cells from the Y-tube. A glass electrode for the measurement was filled with an intracellular fluid (Potassium Gluconate: 130 mmol/L, KCl: 20 mmol/L, MgCl2: 1 mmol/L, ATP-Mg: 5 mmol/L, EGTA: 3.5 mmol/L, HEPES: 10 mmol/L (adjusted to pH 7.2 with Tris-base)). A conventional whole cell patch clamp method was applied to the cells, and the maintenance electric potential was set to −80 mV. Under a fixed electric potential, the whole cell current was amplified by an amplifier for patch clamp (AXOPATCH-200B, Axon Instruments, Inc.), and the data was loaded into a computer (IMC-P642400, Intermedical Co., Ltd.) using a data acquisition analysis software (pCLAMP 9.2, Axon Instruments, Inc.).
The measurement of the hERG current was performed in the following two steps. In both cases, the hERG current was initiated by giving a command potential (maintenance electric potential −80 mV, prepulse +20 mV, 1.5 sec, test-pulse −50 mV, 1.5 sec).
Step (1): The above-mentioned command potential was given at 0.1 Hz for 2 min.
Step (2): The above-mentioned command potential was subjected to P/3 subtraction of pCLAMP 9.2 to remove leak current. This was repeated three times and an average thereof was taken as hERG current.
Subsequent to step (1), Step (2) was performed (about 3 min), and the maximum tail current obtained by applying a test-pulse to the hERG current obtained by the method of step (2) was taken as hERG current value. Hereafter, the operations of (1) and (2) were alternately repeated until completion of the experiment and the hERG current value was measured.
Stable hERG current value was recorded three times (about 10 min), and the standard extracellular fluid was instantaneously exchanged with each application fluid. The hERG current value was measured three times (about 10 min) in the same manner during perfusion of the application fluid, and the current value obtained by the 3rd measurement was taken as hERG current value after perfusion of the application fluid. […]
(In general: Block of hERG is tested as a sign of cardiac risk.)

Structures are written as SMILES.

Chain of hERG (Q12809 whole entry): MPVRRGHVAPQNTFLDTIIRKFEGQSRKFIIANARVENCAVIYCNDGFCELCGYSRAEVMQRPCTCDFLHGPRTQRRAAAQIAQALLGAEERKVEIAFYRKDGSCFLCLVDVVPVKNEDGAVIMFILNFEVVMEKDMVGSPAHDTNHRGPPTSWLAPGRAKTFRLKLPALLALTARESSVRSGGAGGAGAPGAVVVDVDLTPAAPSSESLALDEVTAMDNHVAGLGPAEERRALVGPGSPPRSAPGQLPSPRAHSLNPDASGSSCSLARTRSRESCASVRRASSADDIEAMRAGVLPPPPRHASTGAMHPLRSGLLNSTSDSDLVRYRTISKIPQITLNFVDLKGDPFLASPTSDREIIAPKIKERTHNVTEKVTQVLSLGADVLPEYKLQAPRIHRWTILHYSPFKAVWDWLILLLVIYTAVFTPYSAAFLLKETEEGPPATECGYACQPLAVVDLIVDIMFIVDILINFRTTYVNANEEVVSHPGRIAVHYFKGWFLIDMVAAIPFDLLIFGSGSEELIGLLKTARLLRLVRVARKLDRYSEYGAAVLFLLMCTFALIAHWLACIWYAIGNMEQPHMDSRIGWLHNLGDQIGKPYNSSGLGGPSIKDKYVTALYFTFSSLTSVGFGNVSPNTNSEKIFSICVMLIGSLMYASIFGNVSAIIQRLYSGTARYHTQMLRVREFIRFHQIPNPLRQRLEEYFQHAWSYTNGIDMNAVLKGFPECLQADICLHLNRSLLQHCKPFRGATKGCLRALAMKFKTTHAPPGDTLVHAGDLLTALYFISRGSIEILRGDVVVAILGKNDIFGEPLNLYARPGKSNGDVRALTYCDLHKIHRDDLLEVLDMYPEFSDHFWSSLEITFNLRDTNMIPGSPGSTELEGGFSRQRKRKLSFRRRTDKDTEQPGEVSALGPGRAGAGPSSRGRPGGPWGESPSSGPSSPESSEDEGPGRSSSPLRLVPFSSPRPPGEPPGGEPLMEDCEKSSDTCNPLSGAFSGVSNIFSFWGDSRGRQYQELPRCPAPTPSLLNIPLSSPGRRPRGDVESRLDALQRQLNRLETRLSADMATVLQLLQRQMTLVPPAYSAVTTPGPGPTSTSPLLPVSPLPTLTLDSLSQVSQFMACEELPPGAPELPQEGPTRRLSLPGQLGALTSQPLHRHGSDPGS

`NC(=O)Cn1cc(-c2cc(OCCC34CC5CC(CC(O)(C5)C3)C4)cc3c2-c2ccccc2[C@]3(O)C(F)(F)F)cn1` [Compound (A), 2-(4-{(9R)-9-Hydroxy-2-[2-(3-hydroxyadamantan-1-yl)ethoxy]-9-(trifluoromethyl)-9H-fluoren-4-yl}-1H-pyrazol-1-yl)acetamide] yielded an IC50 at 10 min above 10 µM.
